Where two headings read alike, the source gives them in different places. Where a SMILES comes first, the peptide text is derived from it. [ ]: non-standard residue; d: D form. Arg(NO2) = N=C(NCCC[C@H](N)C(=O)O)N[N+](=O)[O-]; Aib = CC(C)(N)C(=O)O
Key:
Maximum tolerated dose = format: in vivo; conditions: in vivo
From the text: To fully evaluate the use of ApoE analogs as therapeutic compounds, the margin of safety should also be determined. Towards that end, we determined the maximum tolerated dose of COG 112, COG 248, and COG 345 when administered by intravenous and subcutaneous injection.

[1] = tested on: oligodendrocyte precursor cells (OPC)/microglia mixed culture; assay: LPS-induced OPC cell death in OPC/microglia mixed culture; format: cell-based, rat; conditions: 1 μM, LPS 10 ng/ml, 24 hours
Experimental: FIG. 9. COG 112 protects OPCs from LPS-induced cell death in OPC/microglia mixed culture. LPS (final conc. 10 ng/ml) was added to an OPC/microglia mixed culture with or without 1 μM COG 112. The prefix peptide of COG 112, antennapedia, was used as a negative control. Cells were fixed with 4% formaldehyde and stained with the OPC marker, NG2, and counterstained with hoescht. (A) LPS-treated cultures; (B) LPS+antennapedia (Antp)-treated cultures; (C) LPS+COG 112-treated cultures; (D) Bar graph summarizing the number of NG2+ cells per field in each condition. ** p<0.01.
FIG. 19. COG 345 promotes remyelination in lysolecithin-induced demyelination model of cerebellum slices. Significant demyelination was induced by lysolecithin (0.5 mg/ml) in cerebellar slices. COG 112 or COG 345 (1 μM) was added on day 3 when full demyelination was achieved. 4 days later, the slices were fixed and double stained with myelin marker MBP (green) and Purkinje cell marker calbindin (red). (A) Untreated-slices; (B) lysolecithin-treated slices; (C) COG 112-treated slices after lysolecithin exposure; (D) COG 345-treated slices after lysolecithin exposure. E-F. ApoE analogs protect OPCs from LPS-induced cell death in OPC/microglia mixed culture. OPCs and microglia derived from brain culture of P2 rat pups were plated in 96-well plates in 1:1 ratio. LPS (10 ng/ml) together with 1 μM of the indicated ApoE analogs was added to the cultures. After 24 hours, OPC cell death was quantified by LDH assay (E) and MTT assay (F). Statistical analysis was conducted by one-way ANOVA followed by Dunnett comparison vs. LPS group. * P<0.01, ** P<0.001, n=3.
A primary culture prepared from the brains of P2 Sprague-Dawley rat pups was grown for seven days. Microglia and OPCs were shaken off from the primary culture with an orbital shaker at 150˜200 rpm. The OPCs and microglia were plated in 24-well plates at a 1:1 ratio with 5×10^4 cells per well of each cell type. After 24 hours, LPS (final conc. 10 ng/ml) was added with or without 1 μM COG 112. The prefix peptide of COG 112, antennapedia, was used as a negative control. After incubation for 72 hours, the medium was removed and cells were fixed with 4% formaldehyde and stained with the OPC marker, NG2, and counterstained with hoescht. Five fields from each of the wells were randomly chosen to count the number of NG2-positive cells.
To further assess the ability of the novel ApoE analogs to promote remyelination, the effect of the analogs on OPC survival was assessed in an OPC/microglia mixed culture. OPC and microglia derived from primary culture of P2 rat pup brain were plated on 96-well plates in 1:1 ratio. […] After 24 hours, cell death of OPC was quantified by both LDH and MTT assays.

[2] = Anti-inflammatory properties in vitro or in vivo (general statement)
From the text: The following ApoE analogs, COG 112, COG 1410, COG 241, COG 248, COG 68, and COG 345, have been identified as having improved properties as compared to the ApoE peptide, COG 133.

Calcineurin = target: T1, Calcineurin (Homo sapiens, UniProt Q08209); assay: Cell-free calcineurin phosphatase activity assay (BioMol kit); format: biochemical; conditions: various concentrations
T1 construct: purchased BioMol AK-804
Experimental: FIG. 14. ApoE analogs bind directly to calcineurin and inhibit its activity. […] (B) Immunoprecipitation of human brain lysate with a biotin-COG 133 conjugate. Lane 1=markers; lane 2=clear bead; lane 3=biotin-COG 133 bead conjugate; and lane 4=10 μg lysate. (C) Immunoprecipitation of different glial cultures with a biotin-COG 133 conjugate. Lane 1=markers; lane 2=astrocyte; lane 3=microglia; and lane 4=oligodendrocyte precursor cells (OPC). Blots in B and C were probed for calcineurin (PP2B).
Calcineurin activity was measured in a cell-free in vitro assay in the presence of various concentrations of COG 133 (SEQ ID NO: 1), COG 112 (SEQ ID NO: 5), COG 68 (SEQ ID NO: 7), COG 125 (Ac-AS(Aib)LRKL(Aib)KR—COOH; SEQ ID NO: 8), or antennapedia (antp), the prefix peptide for COG 112. […] Using a BioMol Calcineurin Phosphatase Activity Kit (Cat. #AK-804), the assay was conducted according to manufacturer's instructions. […] This inhibition of calcineurin activity by ApoE analogs is mediated by a direct interaction of the ApoE analog with the phosphatase.

microglia cell line BV2 = assay: LPS-induced NO and TNF-α release in BV2 microglia; format: cell-based, murine; conditions: LPS 10 ng/ml, 24 hours
Experimental: FIG. 16. […] Series concentrations of ApoE analogs were added to culture medium together with LPS (10 ng/ml). 24 hours later, culture medium was collected for measurement of NO by Griess assay or TNF-α by ELISA. […] ApoE analogs (10 μM) were added to the cell medium of human macrophage U937 5 minutes prior to PMA+LPS treatment. The release of superoxide in culture medium was measured by Luminol assay kit (Calbiochem).
The murine microglia cell line BV2 was used as the first screening platform to compare the potency of ApoE analogs in anti-inflammatory activity. In response to LPS, BV2 produces amounts of reactive radical NO and inflammatory cytokines, such as TNF-α and IL-6. We stimulated the cells with LPS (10 ng/ml) in the presence of several concentrations of each of the ApoE analogs. We measured NO in medium by Griess assay and TNF-α by ELISA 24 hours after LPS stimulation of the cells. The IC50 value was calculated for each of the ApoE analogs.

[3] = tested on: PLP-induced relapsing-remitting experimental autoimmune encephalomyelitis (EAE) model; assay: PLP-induced relapsing-remitting EAE model; format: in vivo; design: CSmax during relapse (mean ± SEM) / Area under curve (mean ± SEM): scale not given here; conditions: 4 mg/kg s.c.
Experimental: To further compare the activity of the various ApoE analogs, the efficacy of the analogs was assessed in a PLP-induced relapsing-remitting experimental autoimmune encephalomyelitis (EAE) model. […] The second dose was administered the next day followed by three times a week (M, W, F). Relapse rate represents the number of animals experiencing a relapse, while the CSmax indicates the maximal clinical score during relapse. Area under curve represents the area under the curve in a plot of clinical score vs. days post-inoculation (out to 60 days). […] The improvement in relapse rate and clinical score in the EAE model by ApoE analog treatment may be due, in part, to the remyelination-promoting effect of the ApoE analogs.

enriched OPC cultures = assay: Number of mature oligodendrocytes after differentiation of enriched OPC culture; format: cell-based, rat; conditions: 2 μM COG 133, 1 μM COG 112 or 1 μM COG 68 for four days, then six days differentiation without analog
Experimental: FIG. 11. ApoE analogs increase the number of mature oligodendrocytes in culture. ApoE analogs (COG 133, COG 112, and COG 68) were added to enriched OPC culture in proliferation media for four days. Cultures were then differentiated in the absence of the ApoE analogs. Cells were labeled with a GST-π antibody to detect mature oligodendrocytes.
Since COG 112 increased the proliferation of OPCs, we next examined whether the ApoE analogs could also increase the number of mature oligodendrocytes. Enriched OPC cultures were prepared as described for the previous experiment. 2 μM COG 133 (SEQ ID NO: 1), 1 μM COG 112 (SEQ ID NO: 5), or 1 μM COG 68 (Ac-[…]-NH2; SEQ ID NO: 7) were added to the enriched OPC cultures in proliferation media for four days. The media was then replaced with differentiation medium without the ApoE analogs for an additional six days. Cells were labeled with a GST-π antibody to detect mature oligodendrocytes.

## CC(=O)N[C@@H](CC(C)C)C(=O)N[C@@H](CCCNC(=N)N)C(=O)N[C@H](C(=O)N[C@@H](CCCNC(=N)N)C(=O)N[C@@H](CC(C)C)C(=O)N[C@@H](C)C(=O)N[C@@H](CO)C(=O)NC(C)(C)C(=O)N[C@@H](CC(C)C)C(=O)N[C@@H](CCCNC(=N)N)C(=O)N[C@@H](CCCCN)C(=O)N[C@@H](CC(C)C)C(=O)N[C@@H](CCCNC(=N)N)C(=O)N[C@@H](CCCCN)C(=O)N[C@@H](CCCNC(=N)N[N+](=O)[O-])C(=O)N[C@@H](CC(C)C)C(=O)N[C@@H](CC(C)C)C(N)=O)C(C)C [COG 248, acetyl-LRVRLAS-Aib-LRKLRK(nitro-Arg)LL-amide] (Ac-LRVRLAS[Aib]LRKLRK[Arg(NO2)]LL-NH2)
Maximum tolerated dose; sc, subcutaneous injection, read-out: Maximum Tolerated Dose Subcutaneous
  MTD: > 150 mg/kg
Maximum tolerated dose; intravenous injection, read-out: Maximum Tolerated Dose Intravenous
  MTD: 25 mg/kg

## CCCCCCCCc1ccc(CCC(N)(CO)CO)cc1 [FTY720, reference compound]
[1]
  OPC cell death by LDH and MTT assays: did not show a clear protective effect

## acetyl-AS-Aib-LRKL-Aib-KR-amide (Ac-AS[Aib]LRKL[Aib]KR-NH2; SMILES CC(=O)N[C@@H](C)C(=O)N[C@@H](CO)C(=O)NC(C)(C)C(=O)N[C@@H](CC(C)C)C(=O)N[C@@H](CCCNC(=N)N)C(=O)N[C@@H](CCCCN)C(=O)N[C@@H](CC(C)C)C(=O)NC(C)(C)C(=O)N[C@@H](CCCCN)C(=O)N[C@@H](CCCNC(=N)N)C(N)=O) [COG 125, reference compound]
[2]
  anti-inflammatory properties: did not exhibit any anti-inflammatory properties
Calcineurin
  inhibition of calcineurin activity: Inactive

## acetyl-AS-Aib-LRKL-Aib-KRLL-amide [COG 1410]
Microglia cell line BV2
  activity in suppression of microglia activation (NO by Griess assay, TNF-α by ELISA): clearly superior to that of COG 133

## acetyl-Aib-LRKL-Aib-(n acetyl K)RLL-amide (Ac-[Aib]LRKL[Aib]K(Ac)RLL-NH2; SMILES CC(=O)NCCCC[C@H](NC(=O)C(C)(C)NC(=O)[C@H](CC(C)C)NC(=O)[C@H](CCCCN)NC(=O)[C@H](CCCNC(=N)N)NC(=O)[C@H](CC(C)C)NC(=O)C(C)(C)NC(C)=O)C(=O)N[C@@H](CCCNC(=N)N)C(=O)N[C@@H](CC(C)C)C(=O)N[C@@H](CC(C)C)C(N)=O) [COG 241]
[3]; clinical score vs days post-inoculation, out to 60 days
  Area under curve (mean ± SEM): 13.5 ± 2.6
[3]; maximal clinical score during relapse
  CSmax during relapse (mean ± SEM): 2.3 ± 0.8
[3]; number of animals experiencing a relapse
  Relapse Rate: 8/15

## acetyl-RRLSYSRRRFLRVRLASHLRKLRKRLL-amide (Ac-RRLSYSRRRFLRVRLASHLRKLRKRLL-NH2) [COG 68, ApoE peptide linked to the protein transduction domain SynB3]
Enriched OPC cultures
  number of mature oligodendrocytes (GST-π): significantly increased the number of mature oligodendrocytes
Microglia cell line BV2
  activity in suppression of microglia activation (NO by Griess assay, TNF-α by ELISA): clearly superior to that of COG 133
Calcineurin
  inhibition of calcineurin activity: dose-dependent inhibition

Reference: US8629242B2, “Methods of inhibiting calcineurin with ApoE analogs” (Cognosci, Inc., priority 2007, dated 2014)
